Our source for the IC50, Activity and inhibition values is ChEMBL document CHEMBL5584333, “Evo312: An Evodiamine Analog and Novel PKCβI Inhibitor with Potent Antitumor Activity in Gemcitabine-Resistant Pancreatic Cancer” (J Med Chem, 2024).

A short description of data set [1]: Cytotoxicity against human MRC5 cells assessed as inhibition of cell growth incubated for 72 hrs by SRB assay. In kind it is toxicity, cell-based. (Sulforhodamine B stains cellular protein and so reports cell mass.)
Data set [2] relates to Gemcitabine-resistant PANC-1. Put plainly: Cytotoxicity against human Gemcitabine-resistant PANC-1 cells assessed as inhibition of cell growth incubated for 72 hrs by SRB assay. The conditions noted are these: Gemcitabine-resistant PANC-1, 72 h. In kind it is functional, cell-based.
The target of data set [3] is T1, Protein kinase C beta type (Homo sapiens, UniProt P05771). Briefly: Inhibition of recombinant full length N-terminal GST-tagged human PKCbeta1 expressed in baculovirus infected Sf9 insect cells using ERMRPRKRQGSVRRRV as substrate incubated for 60 mins in presence of ATP by ADP-glo reagent based luminometric analysis.
Target sequence in this assay (P05771 whole entry): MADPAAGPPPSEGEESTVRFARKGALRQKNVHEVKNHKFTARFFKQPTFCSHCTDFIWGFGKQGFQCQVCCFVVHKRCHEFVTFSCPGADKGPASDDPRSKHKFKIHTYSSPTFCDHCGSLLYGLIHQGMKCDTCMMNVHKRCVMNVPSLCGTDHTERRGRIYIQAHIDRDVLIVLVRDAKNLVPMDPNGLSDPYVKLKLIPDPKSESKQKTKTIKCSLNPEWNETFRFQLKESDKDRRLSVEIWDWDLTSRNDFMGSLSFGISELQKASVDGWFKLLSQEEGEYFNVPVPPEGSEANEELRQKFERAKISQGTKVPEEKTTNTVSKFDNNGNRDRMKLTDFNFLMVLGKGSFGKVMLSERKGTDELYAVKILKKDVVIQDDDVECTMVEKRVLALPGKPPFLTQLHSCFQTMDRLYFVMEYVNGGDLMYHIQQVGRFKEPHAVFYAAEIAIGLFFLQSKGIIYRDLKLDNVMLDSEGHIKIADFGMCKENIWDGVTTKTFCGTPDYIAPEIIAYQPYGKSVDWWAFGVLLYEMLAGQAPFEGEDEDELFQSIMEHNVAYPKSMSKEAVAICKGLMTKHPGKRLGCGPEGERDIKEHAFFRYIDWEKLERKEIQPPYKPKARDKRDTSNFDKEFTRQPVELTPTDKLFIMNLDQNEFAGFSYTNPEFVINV
Data set [4] concerns Gemcitabine-resistant PANC-1. Briefly: Downregulation of PKCbeta1expression in human Gemcitabine-resistant PANC-1 cells at 100 nM incubated for 24 hrs by Western blot analysis. In kind it is functional, cell-based. (In general: A western blot detects proteins with antibodies after separation by electrophoresis.)
Data set [5] deals with Gemcitabine-resistant PANC-1. Put plainly: Downregulation of PKCalpha expression in human Gemcitabine-resistant PANC-1 cells at 40 to 160 nM incubated for 24 hrs by Western blotting. The conditions noted are these: dose 40-160 nM. In kind it is functional, cell-based.
Data set [6] concerns the target T2, Signal transducer and activator of transcription 5A (Homo sapiens) (UniProt P42229).
T2 sequence (whole entry): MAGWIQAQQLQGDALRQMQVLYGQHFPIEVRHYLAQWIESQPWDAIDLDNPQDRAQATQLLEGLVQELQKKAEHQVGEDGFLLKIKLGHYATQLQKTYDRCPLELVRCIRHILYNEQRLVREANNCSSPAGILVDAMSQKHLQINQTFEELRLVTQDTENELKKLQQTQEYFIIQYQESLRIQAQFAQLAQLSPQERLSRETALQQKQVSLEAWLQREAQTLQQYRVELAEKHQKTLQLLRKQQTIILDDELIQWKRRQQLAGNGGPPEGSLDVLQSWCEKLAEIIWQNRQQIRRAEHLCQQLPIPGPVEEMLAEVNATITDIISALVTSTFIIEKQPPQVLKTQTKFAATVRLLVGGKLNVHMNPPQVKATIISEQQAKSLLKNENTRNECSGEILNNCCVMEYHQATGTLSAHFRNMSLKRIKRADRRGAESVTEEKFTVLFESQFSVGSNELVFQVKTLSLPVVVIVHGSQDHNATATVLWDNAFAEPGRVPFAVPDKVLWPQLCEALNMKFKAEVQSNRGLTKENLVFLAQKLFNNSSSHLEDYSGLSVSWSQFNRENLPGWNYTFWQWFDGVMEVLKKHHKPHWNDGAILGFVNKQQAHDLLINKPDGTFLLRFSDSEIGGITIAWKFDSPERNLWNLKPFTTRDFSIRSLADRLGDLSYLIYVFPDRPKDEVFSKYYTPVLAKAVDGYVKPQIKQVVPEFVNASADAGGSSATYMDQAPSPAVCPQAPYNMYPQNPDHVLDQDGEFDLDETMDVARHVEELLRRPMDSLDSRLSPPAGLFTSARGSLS
Put plainly: Inhibition of STAT5 phosphorylation in human Gemcitabine-resistant PANC-1 cells at 160 nM incubated for 24 hrs by phospho-kinase array analysis. In kind it is cell-based.

For data set [7], the system named is Gemcitabine-resistant PANC-1. Briefly: Downregulation of p-PRAS40 expression in human Gemcitabine-resistant PANC-1 cells at 40 to 160 nM incubated for 24 hrs by Western blotting. In kind it is functional, cell-based. The note with it: dose 40-160 nM.
Data set [8] has as its system Gemcitabine-resistant PANC-1. Briefly: Effect on GSK3beta expression in human Gemcitabine-resistant PANC-1 cells at 40 to 160 nM by Western blot analysis. In kind it is functional, cell-based. The conditions noted are these: dose 40-160 nM.
Data set [9] deals with Gemcitabine-resistant PANC-1. Briefly: Effect on p70S6K expression in human Gemcitabine-resistant PANC-1 cells at 40 to 160 nM by Western blot analysis. In kind it is functional, cell-based. The note with it: dose 40-160 nM.
Data set [10] has as its system Gemcitabine-resistant PANC-1. Put plainly: Cell cycle distribution in human Gemcitabine-resistant PANC-1 cells assessed as sub-G1 phase cells at 120 nM incubated for 24 hrs by RNase/PI staining based flow cytometric analysis (reference value: 0.30 %). In kind it is functional.
The test system of data set [11] is Gemcitabine-resistant PANC-1. Put plainly: Cell cycle distribution in human Gemcitabine-resistant PANC-1 cells assessed as S phase cells at 40 nM incubated for 24 hrs by RNase/PI staining based flow cytometric analysis (reference value: 17.32 %). In kind it is functional. (In general: In flow cytometry, cells or beads pass a laser one at a time.)
Data set [12] relates to Gemcitabine-resistant PANC-1. Put plainly: Cell cycle distribution in human Gemcitabine-resistant PANC-1 cells assessed as S phase cells at 80 nM incubated for 24 hrs by RNase/PI staining based flow cytometric analysis (reference value: 17.32 %). In kind it is functional.
Data set [13] relates to Gemcitabine-resistant PANC-1. Put plainly: Cell cycle distribution in human Gemcitabine-resistant PANC-1 cells assessed as G2/M phase cells at 80 nM incubated for 24 hrs by RNase/PI staining based flow cytometric analysis (reference value: 37.53 %). In kind it is functional.
Data set [14] concerns Gemcitabine-resistant PANC-1. Put plainly: Induction of cell cycle arrest in human Gemcitabine-resistant PANC-1 cells assessed as downregulation of CDK2 protein expression level at 40 to 160 nM incubated for 24 hrs by Western blot analysis. In kind it is functional, cell-based. The note with it: dose 40-160 nM.
In data set [15] the test system is Gemcitabine-resistant PANC-1. Briefly: Induction of cell cycle arrest in human Gemcitabine-resistant PANC-1 cells assessed as downregulation of Cdc2 protein expression level at 40 to 160 nM incubated for 24 hrs by Western blot analysis. In kind it is functional, cell-based. The note with it: dose 40-160 nM.
Data set [16] has as its system Gemcitabine-resistant PANC-1. Put plainly: Induction of cell cycle arrest in human Gemcitabine-resistant PANC-1 cells assessed as downregulation of cyclin D1 protein expression level at 40 to 160 nM incubated for 24 hrs by Western blot analysis. In kind it is functional, cell-based. The note with it: dose 40-160 nM.
The subject of data set [17] is Gemcitabine-resistant PANC-1. Put plainly: Induction of cell cycle arrest in human Gemcitabine-resistant PANC-1 cells assessed as upregulation of p27 protein expression level at 40 to 160 nM incubated for 24 hrs by Western blot analysis. In kind it is functional, cell-based. The note with it: dose 40-160 nM.
The test system of data set [18] is Gemcitabine-resistant PANC-1. Put plainly: Induction of apoptosis in human Gemcitabine-resistant PANC-1 cells assessed as total cell death at 40 nM incubated for 48 hrs by Annexin V-FITC/PI staining based flow cytometric analysis relative to control. In kind it is functional.
Data set [19] concerns Gemcitabine-resistant PANC-1. Put plainly: Induction of apoptosis in human Gemcitabine-resistant PANC-1 cells assessed as total cell death at 160 nM incubated for 48 hrs by Annexin V-FITC/PI staining based flow cytometric analysis relative to control. In kind it is functional.
Data set [20] concerns Gemcitabine-resistant PANC-1. Briefly: Induction of apoptosis in human Gemcitabine-resistant PANC-1 cells assessed as upregulation of cleaved PARP level at 160 nM incubated for 48 hrs by Western blot analysis. In kind it is functional, cell-based.
Data set [21] concerns Gemcitabine-resistant PANC-1. Briefly: Induction of apoptosis in human Gemcitabine-resistant PANC-1 cells assessed as upregulation of cleaved caspase-8 level at 160 nM incubated for 48 hrs by Western blot analysis. In kind it is functional, cell-based.
The nature of data set [22]: Toxicity in male BALB/c nude mouse assessed as animal death at 40 mg/kg, ip. The note with it: in vivo. In kind it is organism-based.
In data set [23] the target is T1, Protein kinase C beta type. Put plainly: Induction of thermal stabilization of PKCbeta1 in human Gemcitabine-resistant PANC-1 cells at 10 uM incubated for 1 hrs at 40 to 65 degreeC by CETSA. In kind it is cell-based.
Target sequence in this assay (P05771 2-671 limits assumed): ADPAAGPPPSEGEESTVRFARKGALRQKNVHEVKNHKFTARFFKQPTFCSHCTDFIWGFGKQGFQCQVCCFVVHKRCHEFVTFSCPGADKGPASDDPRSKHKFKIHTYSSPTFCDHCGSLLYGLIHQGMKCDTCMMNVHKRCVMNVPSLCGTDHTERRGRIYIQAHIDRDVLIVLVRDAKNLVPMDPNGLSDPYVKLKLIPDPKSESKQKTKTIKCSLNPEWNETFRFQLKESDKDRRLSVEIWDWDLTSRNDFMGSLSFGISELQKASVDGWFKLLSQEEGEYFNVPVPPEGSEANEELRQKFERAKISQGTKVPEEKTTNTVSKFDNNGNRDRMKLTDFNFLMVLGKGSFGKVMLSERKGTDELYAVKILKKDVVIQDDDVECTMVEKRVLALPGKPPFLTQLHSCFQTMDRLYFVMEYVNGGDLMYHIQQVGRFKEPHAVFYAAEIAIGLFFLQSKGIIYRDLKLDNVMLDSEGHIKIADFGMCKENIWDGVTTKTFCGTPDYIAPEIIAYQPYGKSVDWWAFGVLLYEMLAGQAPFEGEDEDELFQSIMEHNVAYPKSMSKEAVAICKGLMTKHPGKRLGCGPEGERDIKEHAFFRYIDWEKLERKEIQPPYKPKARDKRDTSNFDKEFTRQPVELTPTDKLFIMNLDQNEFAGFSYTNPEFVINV

The source made the active and inactive calls. No cut-off for these calls is given here. Where only a bound is given, the exact number is not on record here.

In the case of `CC(=O)Oc1ccc2[nH]c3c(c2c1)CCN1C(=O)c2ccccc2N(C)[C@H]31`, in data set [1], the IC50 at 72 h is above 50000 nM. In addition, the half-maximal inhibitory concentration (IC50) amounted to 70 nM in data set [2] and 117 nM in data set [3]. Also, the result in data set [4], in data set [7], in [14], in [15], in data set [16] and in data set [17] was Active. Also, the result in data set [20], in data set [21] and in data set [23] was Active. Besides, the result in [5], in data set [8] and in [9] was inactive. Also, the inhibition result in data set [6] was “Active”. For the same compound, the Activity was found to be 1.6% in data set [10]; 17.71% in data set [11]; 15.94% in [12]; 48.98% in [13]; 15.83% in data set [18]; 24.95% in data set [19]. Moreover, the Activity result in data set [22] is listed as “Non-Toxic”.

In general, IC50 refers to the concentration that gives 50% inhibition.
